Where a name gives a salt, the structure may show the parent alone.
Columns and labels:
[1] = tested on: intact, bacterially derived minicells; assay: Flow cytometry of dye-packaged minicells (FL1 channel); set-up: species or system Salmonella enterica serovar Typhimurium; conditions: BacLight Green 200 nM, 30 minutes, room temperature
Description: Minicells packaged with BacLight™ Green were analyzed by flow cytometry (Beckman Coulter FC500). Empty minicells and BacLight™ Green-packaged minicells were labeled with an anti-LPS alexa fluor 647 (AF647) antibody. Firstly, the minicells were analyzed using the FL4 channel to detect anti-LPS AF647-stained minicells. The minicell population was visualized in a dot plot using FL4 fluorescence versus forward scatter, and the population was gated to select anti-LPS AF647 stained minicells only, disregarding any debris.
The gated population was analyzed on the FL1 channel, to detect BacLight™ Green fluorescence.
Minicells loaded with SYTO 9® were analyzed by flow cytometry (Beckman Coulter FC500). Empty minicells and SYTO® 9-stained minicells were labeled with an anti-LPS alexa fluor 647 (AF647) antibody. Firstly, the minicells were analyzed using the FL4 channel to detect anti-LPS AF647-stained minicells. The minicell population was visualized in a dot plot, using FL4 fluorescence versus forward scatter, and the population was gated to select anti-LPS AF647-stained minicells only, disregarding any debris. The gated population then was analyzed on the FL1 channel, to detect SYTO 9 fluorescence.

[2] = cited from earlier work
[3] = Fluorescence readings of doxorubicin loading solutions with folic acid (plate reader); assay type: physicochemical; conditions: for % Fluorescence Em λ590 nm / % Fluorescence Em λ620 nm: excitation 485 nm
Description: The solutions were incubated at room temperature overnight and then were filtered through a 0.1 μm filter, to sterilize the solutions and to remove any particulates.
On the following day the fluorescence of an aliquot of each solution was measured with a fluorescence plate reader (excitation wavelength: 485 nm, emission wavelengths: 590 nm and 620 nm). Concomitantly, minicells were washed with PBS buffer and then were loaded with one or another of each of the Dox+FA solutions, previously prepared at a density of 2.5×10^10 minicells/ml, in a volume between about 1 ml to 2 mls. Samples (500 μl) were taken from each of the treatment groups at the time points of 30 minutes, 1 hour, 2 hours, 4 hours, 6 hours, and overnight.

[4] = tested on: MDA-MB-468 human breast cancer cells; assay: Incubation of non-targeted doxorubicin-loaded minicells (small-scale protocol) with cancer cells, confocal microscopy; assay type: cell-based; conditions: 1×10^8 non-targeted doxorubicin-loaded minicells (small-scale protocol), 10^4 cells per well; within two days
Description: Upon overnight incubation with the drug (about 1 ml/mg) at 37° C. with rotation, the loaded minicells were subjected five times to a washing step that entailed centrifugation (13,200 rpm, 10 minutes) and resuspension of the resultant pellet in 1 ml BSG buffer (pH 7.4).
The washed, doxorubicin-loaded minicells (1×10^8) then were incubated with estrogen receptor-negative MDA-MB-468 human breast cancer cells (10^4 cells per well) in Gibco RPMI-1640 tissue culture medium (in 0.5 ml per well) supplemented with 10% Fetal Bovine Serum, 2 mM L-glutamine, and 100 U/ml of both penicillin G and streptomycin.
The cells were monitored subsequently every 24 hours via confocal microscopy.

In the case of `CN1C(=CC=Cc2n(Cc3ccc(CCl)cc3)c3cc(Cl)c(Cl)cc3[n+]2Cc2ccc(CCl)cc2)Oc2ccccc21.[Cl-]` [BacLight™ Green], the “minicells that are fluorescent” value [1] was “greater than 95%”.

For `O=C1c2c(O)ccc(O)c2C(=O)c2c(NCCNCCO)ccc(NCCNCCO)c21` [MTX, mitoxantrone dihydrochloride], the solubility in water [2] is listed as 5000 to 7500 µg/mL.

For doxorubicin, the “% Fluorescence Em λ590 nm” value ([3]; 0 μg/ml FA, Dox 100 pg/ml in PBS) was 100%, the “% Fluorescence Em λ620 nm” value ([3]; 0 μg/ml FA) was 100% and the “% Fluorescence Em λ590 nm” value ([3]; 50 μg/ml FA) was 93%. For the same molecule, the “% Fluorescence Em λ620 nm” value ([3]; 50 μg/ml FA) was 94%, the “doxorubicin emission fluorescence lost” value ([3]; 50 μg/ml folic acid) was 6-7% and the “% Fluorescence Em λ590 nm” value ([3]; 400 μg/ml FA) was 61%. The “% Fluorescence Em λ620 nm” value ([3]; 400 μg/ml FA) was 59%, the “doxorubicin fluorescence emission signal lost” value ([3]; 400 μg/ml of folic acid) was ~40% and the “doxorubicin entry into cancer cells (confocal microscopy)” value [4] was “red fluorescence in their nuclei”.
